Measured values taken from patent publication US11388902B2, “Pesticidally active cyclopropyl methyl amide derivatives” (SYNGENTA PARTICIPATIONS AG, priority 2017, dated 2022).

Tests used:
Format in all cases: in vivo
[1] = system: Plutella xylostella (Diamond Back Moth); assay: Plutella xylostella (diamond back moth) artificial diet test; conditions: 120 h, application rate of 200 ppm, L2 larvae, 5 days after infestation, in comparison to untreated samples, read-out: effect in at least one of the two categories (mortality or growth inhibition)
Method: Example B3: Plutella xylostella (Diamond Back Moth)
24-well microtiter plates with artificial diet were treated with aqueous test solutions prepared from 10′000 ppm DMSO stock solutions by pipetting. After drying, the plates were infested with L2 larvae (10 to 15 per well). The samples were assessed for mortality and growth inhibition in comparison to untreated samples 5 days after infestation.

[2] = system: Thrips tabaci (Onion Thrips); assay: Thrips tabaci (onion thrips) feeding/contact activity, sunflower leaf discs; conditions: foliar, 144 h, application rate of 200 ppm, thrips population of mixed ages, 6 days after infestation
Method: Example B6: Thrips tabaci (Onion Thrips) Feeding/Contact Activity
Sunflower leaf discs were placed on agar in 24-well microtiter plates and sprayed with aqueous test solutions prepared from 10′000 ppm DMSO stock solutions. After drying the leaf discs were infested with a thrips population of mixed ages. The samples were assessed for mortality 6 days after infestation.

[3] = system: Spodoptera littoralis (Egyptian Cotton Leaf Worm); assay: Spodoptera littoralis (Egyptian cotton leaf worm) cotton leaf disc test; conditions: foliar, 72 h, application rate of 200 ppm, L1 larvae, 3 days after infestation, in comparison to untreated samples, read-out: control (mortality, anti-feeding effect, or growth inhibition)
Method: Example B4: Spodoptera littoralis (Egyptian Cotton Leaf Worm)
Cotton leaf discs were placed onto agar in 24-well microtiter plates and sprayed with aqueous test solutions prepared from 10′000 ppm DMSO stock solutions. After drying the leaf discs were infested with five L1 larvae. The samples were assessed for mortality, anti-feeding effect, and growth inhibition in comparison to untreated samples 3 days after infestation. Control of Spodoptera littoralis by a test sample is given when at least one of the categories mortality, anti-feedant effect, and growth inhibition is higher than the untreated sample.

[4] = system: Tetranychus urticae (Two-Spotted Spider Mite); assay: Tetranychus urticae (two-spotted spider mite) feeding/contact activity, bean leaf discs; conditions: foliar, 192 h, application rate of 200 ppm, 8 days after infestation, read-out: mortality on mixed population (mobile stages)
Method: Example B5: Tetranychus urticae (Two-Spotted Spider Mite):Feeding/Contact Activity
Bean leaf discs on agar in 24-well microtiter plates were sprayed with aqueous test solutions prepared from 10′000 ppm DMSO stock solutions. After drying the leaf discs were infested with a mite population of mixed ages. The samples were assessed for mortality on mixed population (mobile stages) 8 days after infestation.

[5] = system: Myzus persicae (Green Peach Aphid); assay: Myzus persicae (green peach aphid) sucrose solution feeding test; conditions: 120 h, test rate of 12 ppm, 5 days after infestation
Source text: Example B2: Myzus persicae (Green Peach Aphid)
Test compounds prepared from 10′000 ppm DMSO stock solutions were applied by pipette into 24-well microtiter plates and mixed with sucrose solution. The plates were closed with a stretched Parafilm. A plastic stencil with 24 holes was placed onto the plate and infested pea seedlings were placed directly on the Parafilm. The infested plate was closed with a gel blotting paper and another plastic stencil and then turned upside down. The samples were assessed for mortality 5 days after infestation.

[6] = system: Diabrotica balteata (Corn Root Worm); assay: Diabrotica balteata (corn root worm) on sprayed maize sprouts; conditions: 96 h, application rate of 200 ppm, L2 larvae, 4 days after infestation, in comparison to untreated samples, read-out: effect in at least one of the two categories (mortality or growth inhibition)
Method: Example B1: Diabrotica balteata (Corn Root Worm)
Maize sprouts placed onto an agar layer in 24-well microtiter plates were treated with aqueous test solutions prepared from 10′000 ppm DMSO stock solutions by spraying. After drying, the plates were infested with L2 larvae (6 to 10 per well). The samples were assessed for mortality and growth inhibition in comparison to untreated samples 4 days after infestation.

Cc1cc(C2=NO[C@@](c3cc(Cl)c(F)c(Cl)c3)(C(F)(F)F)C2)ccc1C(=O)NC(C)C1(C#N)CC1 (stereo partly drawn) [Compound E01, N-[1-(1-cyanocyclopropyl)ethyl]-4-[(5S)-5-(3,5-dichloro-4-fluoro-phenyl)-5-(trifluoromethyl)-4H-isoxazol-3-yl]-2-methyl-benzamide]
≥ 80%: percent effect (mortality or growth inhibition) at 200 ppm [1] | mortality at 200 ppm [2] | percent control (mortality, anti-feedant effect or growth inhibition) at 200 ppm [3]

Cc1cc(C2=NO[C@@](c3cc(Cl)c(F)c(Cl)c3)(C(F)(F)F)C2)ccc1C(=O)NCC1(C#N)CC1 [Compound A01, N-[(1-cyanocyclopropyl)methyl]-4-[(5S)-5-(3,5-dichloro-4-fluoro-phenyl)-5-(trifluoromethyl)-4H-isoxazol-3-yl]-2-methyl-benzamide]
≥ 80%: mortality at 200 ppm [4] | mortality at 12 ppm [5] | percent effect (mortality or growth inhibition) at 200 ppm [6] | percent effect (mortality or growth inhibition) at 200 ppm [1] | mortality at 200 ppm [2] | percent control (mortality, anti-feedant effect or growth inhibition) at 200 ppm [3]

N#CC1(CNC(=O)c2ccc(C3=NOC(c4cc(Cl)cc(Cl)c4)(C(F)(F)F)C3)cn2)CC1 (racemic) [Compound D01, N-[(1-cyanocyclopropyl)methyl]-5-[5-(3,5-dichlorophenyl)-5-(trifluoromethyl)-4H-isoxazol-3-yl]pyridine-2-carboxamide]
≥ 80%: percent effect (mortality or growth inhibition) at 200 ppm [6] | percent effect (mortality or growth inhibition) at 200 ppm [1] | mortality at 200 ppm [2]

CCOC(=O)N(CC1(C#N)CC1)C(=O)c1ccc(C2=NO[C@@](c3cc(Cl)c(F)c(Cl)c3)(C(F)(F)F)C2)cc1C [Compound F01, ethyl N-[(1-cyanocyclopropyl)methyl]-N-[4-[(5S)-5-(3,5-dichloro-4-fluoro-phenyl)-5-(trifluoromethyl)-4H-isoxazol-3-yl]-2-methyl-benzoyl]carbamate]
≥ 80%: mortality at 200 ppm [4] | percent effect (mortality or growth inhibition) at 200 ppm [6] | percent effect (mortality or growth inhibition) at 200 ppm [1] | mortality at 200 ppm [2] | percent control (mortality, anti-feedant effect or growth inhibition) at 200 ppm [3]

Cc1cc(C2=NO[C@@](c3cc(Cl)c(F)c(Cl)c3)(C(F)(F)F)C2)ccc1C(=O)NCC1(C(N)=O)CC1 [Compound C01, N-[(1-carbamoylcyclopropyl)methyl]-4-[(5S)-5-(3,5-dichloro-4-fluoro-phenyl)-5-(trifluoromethyl)-4H-isoxazol-3-yl]-2-methyl-benzamide]
≥ 80%: mortality at 200 ppm [4] | mortality at 12 ppm [5] | percent effect (mortality or growth inhibition) at 200 ppm [6] | percent effect (mortality or growth inhibition) at 200 ppm [1] | mortality at 200 ppm [2] | percent control (mortality, anti-feedant effect or growth inhibition) at 200 ppm [3]

Cc1cc(C2=NOC(c3cc(Cl)cc(Cl)c3)(C(F)(F)F)C2)ncc1C(=O)NCC1(C#N)CC1 (racemic) [Compound D02, N-[(1-cyanocyclopropyl)methyl]-6-[5-(3,5-dichlorophenyl)-5-(trifluoromethyl)-4H-isoxazol-3-yl]-4-methyl-pyridine-3-carboxamide]
≥ 80%: mortality at 200 ppm [4] | mortality at 12 ppm [5] | percent effect (mortality or growth inhibition) at 200 ppm [6] | percent effect (mortality or growth inhibition) at 200 ppm [1] | mortality at 200 ppm [2] | percent control (mortality, anti-feedant effect or growth inhibition) at 200 ppm [3]

Cc1cc(C2=NO[C@@](c3cc(Cl)c(F)c(Cl)c3)(C(F)(F)F)C2)ccc1C(=O)NCC1(C(N)=S)CC1 [Compound B01, N-[(1-carbamothioylcyclopropyl)methyl]-4-[(5S)-5-(3,5-dichloro-4-fluoro-phenyl)-5-(trifluoromethyl)-4H-isoxazol-3-yl]-2-methyl-benzamide]
≥ 80%: mortality at 200 ppm [4] | mortality at 12 ppm [5] | percent effect (mortality or growth inhibition) at 200 ppm [6] | percent effect (mortality or growth inhibition) at 200 ppm [1] | mortality at 200 ppm [2] | percent control (mortality, anti-feedant effect or growth inhibition) at 200 ppm [3]
